Where a name gives a salt, the structure may show the parent alone.
What was measured:
OGA = target: T1, OGA (Homo sapiens, UniProt O60502); assay: OGA cellular assay (ICC detection of O-GlcNAcylated proteins in HEK293 cells inducible for P301L mutant human Tau); type: cell-based; settings: 6 hours incubation; for EC50: read-out: CELLULAR hOGA, pEC50 (converted)
T1 construct: HEK293 cells inducible for P301L mutant human Tau (isoform 2N4R) were established at Janssen; endogenous in cells; host or cells: HEK293 cells inducible for P301L mutant human Tau (2N4R)
T1 sequence (O60502 1-916): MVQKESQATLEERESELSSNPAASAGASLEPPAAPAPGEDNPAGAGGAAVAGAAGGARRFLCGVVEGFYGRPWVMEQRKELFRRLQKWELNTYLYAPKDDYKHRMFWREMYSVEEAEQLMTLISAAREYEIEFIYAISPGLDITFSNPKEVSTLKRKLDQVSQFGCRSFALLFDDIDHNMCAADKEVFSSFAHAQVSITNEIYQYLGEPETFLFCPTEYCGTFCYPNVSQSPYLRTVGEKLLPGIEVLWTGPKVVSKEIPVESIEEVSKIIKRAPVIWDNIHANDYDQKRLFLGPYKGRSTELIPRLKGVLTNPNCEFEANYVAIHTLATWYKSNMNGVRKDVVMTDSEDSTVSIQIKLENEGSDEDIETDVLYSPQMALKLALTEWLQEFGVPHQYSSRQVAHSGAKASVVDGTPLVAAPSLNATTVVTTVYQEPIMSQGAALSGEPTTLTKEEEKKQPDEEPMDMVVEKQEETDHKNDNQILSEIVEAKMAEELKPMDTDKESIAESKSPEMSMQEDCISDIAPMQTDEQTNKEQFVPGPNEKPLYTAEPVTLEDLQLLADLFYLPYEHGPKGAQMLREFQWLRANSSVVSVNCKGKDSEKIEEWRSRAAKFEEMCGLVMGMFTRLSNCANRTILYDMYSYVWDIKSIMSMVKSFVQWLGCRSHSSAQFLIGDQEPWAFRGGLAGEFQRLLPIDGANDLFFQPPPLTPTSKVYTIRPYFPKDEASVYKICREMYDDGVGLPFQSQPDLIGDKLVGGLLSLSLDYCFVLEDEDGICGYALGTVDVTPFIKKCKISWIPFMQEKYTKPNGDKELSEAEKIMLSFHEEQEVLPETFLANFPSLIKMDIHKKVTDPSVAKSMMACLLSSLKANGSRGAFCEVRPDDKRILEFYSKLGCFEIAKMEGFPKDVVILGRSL
Experimental: HEK293 cells inducible for P301L mutant human Tau (isoform 2N4R) were established at Janssen. Thiamet-G was used for both plate validation (high control) and as reference compound (reference EC50 assay validation). OGA inhibition is evaluated through the immunocytochemical (ICC) detection of O-GlcNAcylated proteins by the use of a monoclonal antibody (CTD110.6; Cell Signaling, #9875) detecting O-GlcNAcylated residues as previously described (Dorfmueller et al. 2010 Chemistry & biology, 17:1250). Inhibition of OGA will result in an increase of O-GlcNAcylated protein levels resulting in an increased signal in the experiment. Cell nuclei are stained with Hoechst to give a cell culture quality control and a rough estimate of immediate compounds toxicity, if any. ICC pictures are imaged with a Perkin Elmer Opera Phenix plate microscope and quantified with the provided software Perkin Elmer Harmony 4.1.
Cells were propagated in DMEM high Glucose (Sigma, #D5796) following standard procedures. 2 days before the cell assay cells are split, counted and seeded in Poly-D-Lysine (PDL) coated 96-wells (Greiner, #655946) plate at a cell density of 12,000 cells per cm^2 (4,000 cells per well) in 100 µl of Assay Medium (Low Glucose medium is used to reduce basal levels of GlcNAcylation) (Park et al. 2014 The Journal of biological chemistry 289:13519). At the day of compound test medium from assay plates was removed and replenished with 90 μl of fresh Assay Medium. 10 μl of compounds at a 10 fold final concentration were added to the wells. Plates were centrifuged shortly before incubation in the cell incubator for 6 hours. DMSO concentration was set to 0.2%. Medium is discarded by applying vacuum. For staining of cells medium was removed and cells washed once with 100 μl D-PBS (Sigma, #D8537). From next step onwards unless other stated assay volume was always 50 μl and incubation was performed without agitation and at room temperature. Cells were fixed in 50 μl of a 4% paraformaldehyde (PFA, Alpha aesar, # 043368) PBS solution for 15 minutes at room temperature. […] Before analysis samples were washed 2 times manually for 5 minutes in ICC base buffer.
Imaging is performed using Perkin Elmer Phenix Opera using a water 20× objective and recording 9 fields per well. Intensity readout at 488 nm is used as a measure of O-GlcNAcylation level of total proteins in wells. To assess potential toxicity of compounds nuclei were counted using the Hoechst staining. IC50-values are calculated using parametric non-linear regression model fitting. As a maximum inhibition Thiamet G at a 200 uM concentration is present on each plate. In addition, a concentration response of Thiamet G is calculated on each plate.

[1] = target: T2, recombinant human Meningioma Expressed Antigen 5 (MGEA5), also referred to as O-GlcNAcase (OGA) (Homo sapiens, UniProt O60502); assay: OGA biochemical assay (inhibition of FM-GlcNAc hydrolysis, fluorescence); settings: for Emax: read-out: ENZYMATIC Emax (%); for IC50: read-out: ENZYMATIC hOGA, pIC50 (converted)
T2 construct: Full length OGA enzyme was purchased at OriGene (cat # TP322411); purchased OriGene TP322411
T2 sequence (O60502 1-916): T1 sequence (O60502 1-916)
Text: The assay is based on the inhibition of the hydrolysis of fluorescein mono-β-D-N-Acetyl-Glucosamine (FM-GlcNAc) (Mariappa et al. 2015, Biochem J 470:255) by the recombinant human Meningioma Expressed Antigen 5 (MGEA5), also referred to as O-GlcNAcase (OGA). The hydrolysis FM-GlcNAc (Marker Gene technologies, cat # M1485) results in the formation of B-D-N-glucosamineacetate and fluorescein. The fluorescence of the latter can be measured at excitation wavelength 485 nm and emission wavelength 538 nm. An increase in enzyme activity results in an increase in fluorescence signal. Full length OGA enzyme was purchased at OriGene (cat # TP322411). The enzyme was stored in 25 mM Tris.HCl, pH 7.3, 100 mM glycine, 10% glycerol at −20° C. Thiamet G and GlcNAcStatin were tested as reference compounds (Yuzwa et al. 2008 Nature Chemical Biology 4:483; Yuzwa et al. 2012 Nature Chemical Biology 8:393). The assay was performed in 200 mM Citrate/phosphate buffer supplemented with 0.005% Tween-20. 35.6 g Na2HPO4 2 H2O (Sigma, # C0759) were dissolved in 1 L water to obtain a 200 mM solution. 19.2 g citric acid (Merck, # 1.06580) was dissolved in 1 L water to obtain a 100 mM solution. pH of the sodium phosphate solution was adjusted with the citric acid solution to 7.2. The buffer to stop the reaction consists of a 500 mM Carbonate buffer, pH 11.0. 734 mg FM-GlcNAc were dissolved in 5.48 mL DMSO to obtain a 250 mM solution and was stored at −20° C. OGA was used at 2 nM concentration and FM-GlcNAc at a 100 uM final concentration. Dilutions were prepared in assay buffer.
50 nl of a compound dissolved in DMSO was dispensed on Black Proxiplate™ 384 Plus Assay plates (Perkin Elmer, #6008269) and 3 μl fl-OGA enzyme mix added subsequently. Plates were pre-incubated for 60 min at room temperature and then 2 μl FM-GlcNAc substrate mix added. […] Plates were briefly centrifuged for 1 min at 1000rpm and incubate at room temperature for 6 h. To stop the reaction 5 μl STOP buffer were added and plates centrifuge again 1 min at 1000 rpm.
Fluorescence was quantified in the Thermo Scientific Fluoroskan Ascent or the PerkinElmer EnVision with excitation wavelength 485 nm and emission wavelength 538 nm.
For analysis a best-fit curve is fitted by a minimum sum of squares method. From this an IC50 value and Hill coefficient was obtained. High control (no inhibitor) and low control (saturating concentrations of standard inhibitor) were used to define the minimum and maximum values.

Row | SMILES | melting point [°C] | Emax (OGA) [%] | EC50 (OGA) [µM] | Emax [1] [%] | IC50 [1] [µM] | ENZYMATIC hOGA; pIC50 [1]
1 | Cc1cc(N2CCC3(CCN(Cc4ccc5sc(C)nc5c4)C3)C2)nc(C)n1 (stereo not drawn) (as salt: HCl) [Product 32] | 214.8 |  |  |  |  | 
2 | Cc1cc(N2CCC3(CCN(C(C)c4ccc5nccnc5c4)C3)C2)nc(C)n1.Cl (stereo not drawn) [Product 20] | 173.1 | 14.9 | > 1000 | 97.6 | 0.117 | 
3 | CC(=O)Nc1ncc(CN2CCC3(C2)CN(c2cc(C)nc(C)c2)C3)s1 [Product 23] | 212.2 |  |  | 100 | 0.302 | 
4 | Cc1cc(N2CCC3(CCN(C(C)c4ccc5scnc5c4)C3)C2)nc(C)n1.Cl (stereo not drawn) [Product 24] | 218.2 | 38 | > 1 | 99.3 | 0.049 | 
5 | CC(=O)Nc1ncc(CN2CC3(CCN(c4cc(C)nc(C)c4)C3)C2)s1 [Product 25] | 214.1 |  |  | 57.9 | 8.71 | 
6 | Cc1cc(N2CCC3(CCN(C(C)c4cc5ccccc5n4C)C3)C2)nc(C)n1.Cl (stereo not drawn) [Product 27] | 166.4 |  |  | 79.4 |  | 5.58
7 | Cc1cc(N2CCC3(CCN(C(C)c4ccc5sc(C)nc5c4)C3)C2)nc(C)n1 (stereo not drawn) [Product 31] | 230 | 23.7 | > 1 | 102 | 0.0339 | 
8 | CC(=O)Nc1ncc(CN2CCC3(CCN(c4ccnc(C)c4)C3)C2)s1 (stereo not drawn) [Product 52] |  | 73.7 | 0.209 | 100 | 0.0162 | 
9 | CC(=O)Nc1ncc(CN2CCC3(CCN(c4ccc(C)nc4C#N)C3)C2)s1 (stereo not drawn) [Product 57] |  | 56.1 | 0.794 | 101 | 0.0263 | 
10 | COc1cc(N2CCC3(CCN(Cc4cnc(NC(C)=O)s4)C3)C2)cc(C)n1 (stereo not drawn) [Product 58] |  | 86.3 | 0.0562 | 102 | 0.00589 | 
11 | CCOc1cc(N2CCC3(CCN(Cc4cnc(NC(C)=O)s4)C3)C2)cc(C)n1 (stereo not drawn) [Product 59] |  | 84.4 | 0.0398 | 100 | 0.00363 | 
12 | CC(=O)Nc1ncc(CN2CCC3(CCN(c4c(C)cncc4C)C3)C2)s1 (stereo not drawn) [Product 60] |  | 88.9 | 0.148 | 100 | 0.0525 | 

Now from value to compound:

Row | melting point [°C] | Emax (OGA) [%] | EC50 (OGA) [µM] | Emax [1] [%] | IC50 [1] [µM] | ENZYMATIC hOGA; pIC50 [1] | SMILES
13 |  | 94.6 | 0.117 | 102 | 0.0282 |  | CC(=O)Nc1ncc(CN2CCC3(CCN(c4cc(C)c(C)cn4)C3)C2)s1 (stereo not drawn) [Product 61]
14 |  | 22.2 | > 1 | 100 | 0.0427 |  | CC(=O)Nc1ncc(CN2CCC3(CCN(c4cc(C(F)(F)F)cc(C)n4)C3)C2)s1 (stereo not drawn) [Product 62]
15 |  | 75.1 | 0.219 | 102 | 0.00692 |  | COc1cc(N2CCC3(CCN(Cc4cnc(NC(C)=O)s4)C3)C2)ccn1 (stereo not drawn) [Product 63]
16 |  | 62.6 | 0.251 | 101 | 0.00912 |  | CCc1cc(N2CCC3(CCN(Cc4cnc(NC(C)=O)s4)C3)C2)cc(C)n1 (stereo not drawn) [Product 64]
17 |  | 56.8 | 0.724 | 101 | 0.0263 |  | CC(=O)Nc1ncc(CN2CCC3(CCN(c4ccnc(C(F)(F)F)c4)C3)C2)s1 (stereo not drawn) [Product 65]
18 |  | 38.5 | > 1 | 99.7 | 0.0692 |  | COc1cc(C)cc(N2CCC3(CCN(Cc4cnc(NC(C)=O)s4)C3)C2)n1 (stereo not drawn) [Product 66]
19 |  | 45.6 | 0.537 | 99.4 | 0.0347 |  | COc1cncc(N2CCC3(CCN(Cc4cnc(NC(C)=O)s4)C3)C2)c1 (stereo not drawn) [Product 67]
20 |  | 92.9 | 0.138 | 103 | 0.0102 |  | CC(=O)Nc1ncc(CN2CCC3(CCN(c4cncc(C)c4)C3)C2)s1 (stereo not drawn) [Product 68]
21 |  | 57.6 | 0.676 | 99.1 | 0.049 |  | CC(=O)Nc1ncc(CN2CCC3(CCN(c4cncc(C(F)(F)F)c4)C3)C2)s1 (stereo not drawn) [Product 69]

Source: US20200048267A1, “OGA INHIBITOR COMPOUNDS” (Janssen Pharmaceutica NV, priority 2017, published 2020)
